Legend:
Assay type in all cases: in vivo
VIOAR (Viola arvensis) = assay: Post-emergence (PO) action against weeds, greenhouse trial, test method 2; settings: PO application; g of AS/ha: (A) 240, (B) 1200, (C) 140, (A)+(B)+(C) 240 + 1200 + 140
Method: (§1) In the standard design of the test, seeds of various broad-leaved weed and weed grass biotypes (origins) were sown in a 8-13 cm diameter pot filled with natural soil of a standard field soil (loamy silt; non-sterile) and covered with a covering soil layer of about 1 cm. The pots were then cultivated in a greenhouse (12-16 h of light, temperature day 20-22° C., night 15-18° C.) until the time of application. The pots were treated on a laboratory track sprayer with spray liquors comprising the compositions according to the invention, mixtures of the prior art or components used individually. Application of the active compounds or active compound combinations formulated as WG, WP, EC or otherwise was carried out at the appropriate growth stages of the plants. The application rate for the spray application was 100-600 l of water/ha. After the treatment, the plants were returned to the greenhouses.
(§2) About 3 weeks after the application, the soil action or/and foliar action was assessed visually according to a scale of 0-100% in comparison to an untreated comparative group: 0%=no noticeable effect compared to the untreated comparative group; 100%=full effect compared to the untreated comparative group.
(§3) (notes: the term “seeds” also includes vegetative propagation forms such as, for example, rhizome pieces; abbreviations used: h light=hours of illumination, g of AS/ha=gram of active substance per hectare, l/ha=liter per hectare, S=sensitive, R=resistant) • 1. Pre-emergence action against weeds: seeds of various broad-leaved weed and weed grass biotypes (origins) were sown in a 8-13 cm diameter pot filled with natural soil of a standard field soil (loamy silt; non-sterile) and covered with a covering soil layer of about 1 cm. The pots were then cultivated in a greenhouse (12-16 h of light, temperature day 20-22° C., night 15-18° C.) until the time of application. The pots were treated at the BBCH stage 00-10 of the seeds/plants on a laboratory track sprayer with spray liquors comprising the compositions according to the invention, mixtures or components used individually, as WG, WP, EC or other formulations. The application rate for the spray application was 100-600 l of water/ha. After the treatment, the plants were returned to the greenhouses and, when required, treated with fertilizer and watered. • 2. Post-emergence action against weeds: seeds of various broad-leaved weed and weed grass biotypes (origins) were sown in a 8-13 cm diameter pot filled with natural soil of a standard field soil (loamy silt; non-sterile) and covered with a covering soil layer of about 1 cm. The pots were then cultivated in a greenhouse (12-16 h of light, temperature day 20-22° C., night 15-18° C.) until the time of application. The pots were treated at various BBCH stages between 11-25 of the seeds/plants, i.e. generally between two to three weeks after the start of the cultivation, on a laboratory track sprayer with spray liquors comprising the compositions according to the invention, mixtures or components used individually, as WG, WP, EC or other formulations. The application rate for the spray application was 100-600 l of water/ha. After the treatment, the plants were returned to the greenhouses and, when required, treated with fertilizer and watered. • 3. […]

POAAN (Poa annua) = assay: as above; settings: PO application; g of AS/ha: (A) 240, (B) 1200, (C) 140, (A)+(B)+(C) 240 + 1200 + 140
Method: as §1, §2, §3

[1] = tested on: MATCH (Matricaria chamomilla); assay: Action under various soil conditions (soil types), test method 7; settings: g of AS/ha: (A) 90, (B) 1200, (C) 140, (A)+(B)+(C) 90 + 1200 + 140
Method: as §1, §2
(§4) (notes: the term “seeds” also includes vegetative propagation forms such as, for example, rhizome pieces; abbreviations used: h light=hours of illumination, g of AS/ha=gram of active substance per hectare, l/ha=liter per hectare, S=sensitive, R=resistant) • 1. Pre-emergence action against weeds: seeds of various broad-leaved weed and weed grass biotypes (origins) were sown in a 8-13 cm diameter pot filled with natural soil of a standard field soil (loamy silt; non-sterile) and covered with a covering soil layer of about 1 cm. The pots were then cultivated in a greenhouse (12-16 h of light, temperature day 20-22° C., night 15-18° C.) until the time of application. The pots were treated at the BBCH stage 00-10 of the seeds/plants on a laboratory track sprayer with spray liquors comprising the compositions according to the invention, mixtures or components used individually, as WG, WP, EC or other formulations. The application rate for the spray application was 100-600 l of water/ha. After the treatment, the plants were returned to the greenhouses and, when required, treated with fertilizer and watered. • 2. Post-emergence action against weeds: seeds of various broad-leaved weed and weed grass biotypes (origins) were sown in a 8-13 cm diameter pot filled with natural soil of a standard field soil (loamy silt; non-sterile) and covered with a covering soil layer of about 1 cm. The pots were then cultivated in a greenhouse (12-16 h of light, temperature day 20-22° C., night 15-18° C.) until the time of application. The pots were treated at various BBCH stages between 11-25 of the seeds/plants, i.e. generally between two to three weeks after the start of the cultivation, on a laboratory track sprayer with spray liquors comprising the compositions according to the invention, mixtures or components used individually, as WG, WP, EC or other formulations. The application rate for the spray application was 100-600 l of water/ha. After the treatment, the plants were returned to the greenhouses and, when required, treated with fertilizer and watered. • 3. Selective pre-emergence action: seeds of various crop species (origins) were sown in a 8-13 cm diameter pot filled with natural soil of a standard field soil (loamy silt; non-sterile) and covered with a covering soil layer of about 1 cm. The pots were then cultivated in a greenhouse (12-16 h of light, temperature day 20-22° C., night 15-18° C.) until the time of application. The pots were treated at the BBCH stage 00-10 of the seeds/plants on a laboratory track sprayer with spray liquors comprising the compositions according to the invention, mixtures or components used individually, as WG, WP, EC or other formulations. The application rate for the spray application was 100-600 l of water/ha. […]

STEME (Stellaria media) = assay: as above; settings: IU/EC73 soil versus IU soil; g of AS/ha: (A) 90, (B) 1200, (C) 140, (A)+(B)+(C) 90 + 1200 + 140
Method: as §1, §2, §4

AVEFA (Avena fatua) = assay: PE action at different soil pH values, test method 10; settings: PE application, g of AS/ha: (A) 90, (B) 1200, (C) 140, (A)+(B)+(C) 90 + 1200 + 140
Method: as §1, §2

LOLPE (Lolium perenne) [2] = assay: PE action under various irrigation conditions, test method 6; settings: PE application, g of AS/ha: (A) 90, (B) 1200, (C) 140, (A)+(B)+(C) 90 + 1200 + 140
Method: as §1, §2, §4

[3] = tested on: MATCH (Matricaria chamomilla); assay: as above; settings: PE application; irrigation from below; g of AS/ha: (A) 90, (B) 1200, (C) 140, (A)+(B)+(C) 90 + 1200 + 140
Method: as §1, §2, §4

[4] = tested on: HORVS (Hordeum vulgare, summer barley); assay: Selective post-emergence action (crop compatibility), greenhouse trial, test method 4; settings: PO application; g of AS/ha: (A) 240, (B) 1200, (C) 140, (A)+(B)+(C) 240 + 1200 + 140
Method: as §1, §2
(notes: the term “seeds” also includes vegetative propagation forms such as, for example, rhizome pieces; abbreviations used: h light=hours of illumination, g of AS/ha=gram of active substance per hectare, l/ha=liter per hectare, S=sensitive, R=resistant) • 1. Pre-emergence action against weeds: seeds of various broad-leaved weed and weed grass biotypes (origins) were sown in a 8-13 cm diameter pot filled with natural soil of a standard field soil (loamy silt; non-sterile) and covered with a covering soil layer of about 1 cm. The pots were then cultivated in a greenhouse (12-16 h of light, temperature day 20-22° C., night 15-18° C.) until the time of application. […]

[5] = tested on: HORVS (Hordeum vulgare, summer barley); assay: Action under various soil conditions (soil types), test method 7, crop compatibility; settings: g of AS/ha: (A) 90, (B) 1200, (C) 140, (A)+(B)+(C) 90 + 1200 + 140
Method: as §1, §2, §3

LOLPE (Lolium perenne) [6] = assay: Pre-sowing application action against weeds (7 days prior to sowing), test method 5; settings: application 7 days prior to sowing; g of AS/ha: (A) 90, (B) 1200, (C) 140, (A)+(B)+(C) 90 + 1200 + 140
Method: as §1, §2
(notes: the term “seeds” also includes vegetative propagation forms such as, for example, rhizome pieces; abbreviations used: h light=hours of illumination, g of AS/ha=gram of active substance per hectare, l/ha=liter per hectare, S=sensitive, R=resistant) • 1. Pre-emergence action against weeds: seeds of various broad-leaved weed and weed grass biotypes (origins) were sown in a 8-13 cm diameter pot filled with natural soil of a standard field soil (loamy silt; non-sterile) and covered with a covering soil layer of about 1 cm. The pots were then cultivated in a greenhouse (12-16 h of light, temperature day 20-22° C., night 15-18° C.) until the time of application. The pots were treated at the BBCH stage 00-10 of the seeds/plants on a laboratory track sprayer with spray liquors comprising the compositions according to the invention, mixtures or components used individually, as WG, WP, EC or other formulations. The application rate for the spray application was 100-600 l of water/ha. After the treatment, the plants were returned to the greenhouses and, when required, treated with fertilizer and watered. • 2. Post-emergence action against weeds: seeds of various broad-leaved weed and weed grass biotypes (origins) were sown in a 8-13 cm diameter pot filled with natural soil of a standard field soil (loamy silt; non-sterile) and covered with a covering soil layer of about 1 cm. The pots were then cultivated in a greenhouse (12-16 h of light, temperature day 20-22° C., night 15-18° C.) until the time of application. […]

[7] = tested on: ALOMY resistant (Alopecurus myosuroides); assay: PE action on resistant weed biotypes, test method 8; settings: PE application; g of AS/ha: (A) 90, (B) 1200, (C) 140, (A)+(B)+(C) 90 + 1200 + 140, iodosulfuron 10
Method: as §1, §2, §4

[8] = tested on: ALOMY sensitive (Alopecurus myosuroides); assay: as above; settings: PE application; g of AS/ha: (A) 90, (B) 1200, (C) 140, (A)+(B)+(C) 90 + 1200 + 140, iodosulfuron 10
Method: as §1, §2, §4

## CSc1nnc(C(C)(C)C)c(=O)n1N [(C) metribuzin, 4-amino-6-(1,1-dimethylethyl)-3-(methylthio)-1,2,4-triazin-5(4H)-one]
VIOAR (Viola arvensis)
  activity VIOAR (visual, scale 0-100%): 90%
POAAN (Poa annua)
  activity POAAN (visual, scale 0-100%): 79%
[1]; IU soil
  activity MATCH IU soil: 0%
[1]; IU/EC73 soil versus IU soil
  Difference of the soil types, MATCH: +15%
[1]; IU/EC73 soil
  activity MATCH IU/EC73 soil: 15%
STEME (Stellaria media)
  Difference of the soil types, STEME: −70%
AVEFA (Avena fatua); soil pH 7.4
  activity AVEFA pH 7.4: 90%
AVEFA (Avena fatua); soil pH 8.4
  activity AVEFA pH 8.4: 90%
LOLPE (Lolium perenne) [2]; irrigation from above
  activity LOLPE: 55%
LOLPE (Lolium perenne) [2]; irrigation from below
  activity LOLPE: 48%
[3]
  activity MATCH: 60%
[4]
  activity HORVS (crop plant; visual, scale 0-100%): 70%
[5]; IU soil
  activity HORVS IU soil (crop plant): 20%
[5]; IU/EC73 soil versus IU soil
  Difference of the soil types, HORVS: −20%
LOLPE (Lolium perenne) [6]
  activity LOLPE: 100%
[7]
  activity ALOMY resistant: 80%
[8]
  activity ALOMY sensitive: 85%

Source: patent US20110152093A1, “Herbicidal compositions comprising flufenacet” (Bayer CropScience AG, priority 2009, published 2011)
